# Tests used:
# [1] = target: D(1A) dopamine receptor (Homo sapiens) (UniProt P21728); assay: Binding affinity to dopamine D1 receptor (unknown origin)
# [2] = target: D(1A) dopamine receptor (Rattus norvegicus) (UniProt P18901)
# Description: Binding affinity to dopamine D1 receptor in Rattus norvegicus (rat) brain
# [3] = Half life in Rattus norvegicus (rat) plasma; assay type: ADME, cell-free
# Chain of D(1A) dopamine receptor (Homo sapiens) (P21728 whole entry): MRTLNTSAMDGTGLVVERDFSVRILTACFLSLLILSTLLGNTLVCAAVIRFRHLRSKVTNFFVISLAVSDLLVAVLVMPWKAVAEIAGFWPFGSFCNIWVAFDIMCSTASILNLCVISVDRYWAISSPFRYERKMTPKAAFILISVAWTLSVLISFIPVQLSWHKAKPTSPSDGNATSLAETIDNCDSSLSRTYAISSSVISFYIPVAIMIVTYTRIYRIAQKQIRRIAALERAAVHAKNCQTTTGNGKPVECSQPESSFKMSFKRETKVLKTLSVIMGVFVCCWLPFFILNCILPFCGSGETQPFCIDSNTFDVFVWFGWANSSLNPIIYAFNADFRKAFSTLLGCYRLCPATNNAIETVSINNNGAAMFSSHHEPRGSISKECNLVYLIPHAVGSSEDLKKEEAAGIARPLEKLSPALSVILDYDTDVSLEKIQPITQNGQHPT
# Chain of D(1A) dopamine receptor (Rattus norvegicus) (P18901 whole entry): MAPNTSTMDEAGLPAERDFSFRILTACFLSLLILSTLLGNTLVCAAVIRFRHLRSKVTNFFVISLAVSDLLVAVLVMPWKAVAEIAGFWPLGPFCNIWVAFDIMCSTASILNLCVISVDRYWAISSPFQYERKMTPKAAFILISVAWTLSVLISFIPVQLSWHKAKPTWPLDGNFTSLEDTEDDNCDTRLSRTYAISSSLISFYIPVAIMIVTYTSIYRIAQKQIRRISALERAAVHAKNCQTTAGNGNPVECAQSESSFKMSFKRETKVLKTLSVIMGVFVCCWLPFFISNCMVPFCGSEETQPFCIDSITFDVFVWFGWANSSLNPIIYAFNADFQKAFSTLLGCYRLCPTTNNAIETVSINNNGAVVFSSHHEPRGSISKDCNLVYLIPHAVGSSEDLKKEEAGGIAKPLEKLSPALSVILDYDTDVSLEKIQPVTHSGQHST
Compound,K0.5 [1],further results
NC[C@@H]1O[C@H](C23CC4CC(CC(C4)C2)C3)Cc2c1ccc(O)c2O,1 nM,
Oc1cc2c(cc1O)[C@H]1c3ccccc3CN[C@@H]1CC2,,K0.5 [2]: 5 nM
CCCc1cc2c(s1)CN[C@@H]1CCc3cc(O)c(O)cc3[C@@H]21 (relative stereo),1 nM,
NC[C@@H]1O[C@H](c2ccccc2)Cc2c1ccc(O)c2O (relative stereo),1 nM,
CCCc1cc2c(s1)CN[C@@H]1CCc3cc(OC(C)=O)c(OC(C)=O)cc3[C@@H]21.Cl (relative stereo) [ADROGOLIDE HYDROCHLORIDE],,half-life [3]: 1 min

# Reference: ChEMBL document CHEMBL3044583, “Mechanisms and Issues Relating to the Use of D1-like Dopamine Receptor Agonists for Age-related Illnesses: Parkinson?s Disease and Memory and Cognition” (Med Chem Res, 2004)
